Calls of active or inactive are those of the source. The rule behind the calls is not given here.
What was measured:
[1] = target: 3',5'-cyclic-AMP phosphodiesterase 4B (Homo sapiens, UniProt Q07343); experiment: Inhibition of recombinant full length PDE4B (unknown origin) using FAM-cAMP as substrate at 1 uM preincubated with compound for compound for 15 mins followed by substrate addition and measured after 30 mins by Envision multilabel reader analysis relative to control; conditions: time 45.0 min
Chain of 3',5'-cyclic-AMP phosphodiesterase 4B (Q07343 whole entry): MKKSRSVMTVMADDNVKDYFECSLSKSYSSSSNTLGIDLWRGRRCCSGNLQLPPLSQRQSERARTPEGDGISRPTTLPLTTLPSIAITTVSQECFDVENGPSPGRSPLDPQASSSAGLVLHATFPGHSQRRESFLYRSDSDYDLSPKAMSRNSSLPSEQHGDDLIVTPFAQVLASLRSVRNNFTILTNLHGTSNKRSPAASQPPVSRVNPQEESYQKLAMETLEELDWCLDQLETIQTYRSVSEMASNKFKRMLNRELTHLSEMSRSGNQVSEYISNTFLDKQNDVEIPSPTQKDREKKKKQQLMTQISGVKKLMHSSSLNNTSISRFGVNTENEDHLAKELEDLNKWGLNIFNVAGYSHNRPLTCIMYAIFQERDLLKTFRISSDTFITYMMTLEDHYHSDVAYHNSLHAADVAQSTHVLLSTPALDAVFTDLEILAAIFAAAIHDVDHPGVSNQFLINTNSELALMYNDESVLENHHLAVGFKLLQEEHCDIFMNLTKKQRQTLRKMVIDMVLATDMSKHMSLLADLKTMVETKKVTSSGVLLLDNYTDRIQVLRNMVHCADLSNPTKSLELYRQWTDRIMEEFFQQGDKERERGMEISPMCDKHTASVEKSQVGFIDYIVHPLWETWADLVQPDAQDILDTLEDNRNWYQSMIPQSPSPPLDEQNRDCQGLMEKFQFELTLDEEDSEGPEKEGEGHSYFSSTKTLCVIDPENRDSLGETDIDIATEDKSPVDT

HepG2 = experiment: Cytotoxicity against human HepG2 cells assessed as reduction in cell viability incubated for 24 hrs by CCK-8 assay; type: toxicity, cell-based; conditions: hepg2, 24 h
[2] = Metabolic stability in monkey liver microsomes assessed as half life incubated for 4 hrs in presence of NADPH by LC-MS analysis; type: ADME, Macaca mulatta, Microsome; conditions: rhesus monkey
[3] = Metabolic stability in rat liver microsomes assessed as half life incubated for 4 hrs in presence of NADPH by LC-MS analysis; type: ADME, Microsome
[4] = AUC (0 to infinity) in Sprague-Dawley rat at 10 mg/kg, po measured upto 24 hrs by LC-MS/MS analysis; type: ADME, organism-based; conditions: in vivo
[5] = Half life in Sprague-Dawley rat at 10 mg/kg, po measured upto 24 hrs by LC-MS/MS analysis; type: ADME, organism-based; conditions: in vivo
[6] = Clearance in Sprague-Dawley rat at 5 mg/kg, iv measured upto 24 hrs by LC-MS/MS analysis; type: ADME, organism-based; conditions: in vivo
[7] = Acute toxicity in Sprague-Dawley rat assessed as pathological changes in heart at 1 g/Kg, po administered via gavage by H and E staining based analysis; type: organism-based; conditions: in vivo, 1000 mg/kg
[8] = Acute toxicity in Sprague-Dawley rat assessed as pathological changes in lung at 1 g/Kg, po administered via gavage by H and E staining based analysis; type: organism-based; conditions: in vivo, 1000 mg/kg
[9] = Acute toxicity in Sprague-Dawley rat assessed as pathological changes in kidney at 1 g/Kg, po administered via gavage by H and E staining based analysis; type: organism-based; conditions: in vivo, 1000 mg/kg
[10] = Acute toxicity in Sprague-Dawley rat assessed as effect on apparent liver coefficient change at 1 g/Kg, po administered via gavage; type: organism-based; conditions: in vivo, 1000 mg/kg
[11] = Acute toxicity in Sprague-Dawley rat assessed as effect on apparent lung coefficient change at 1 g/Kg, po administered via gavage; type: organism-based; conditions: in vivo, 1000 mg/kg
[12] = Acute toxicity in Sprague-Dawley rat assessed as effect on apparent kidney coefficient change at 1 g/Kg, po administered via gavage; type: organism-based; conditions: in vivo, 1000 mg/kg
[13] = Acute toxicity in Sprague-Dawley rat assessed as effect on apparent spleen coefficient change at 1 g/Kg, po administered via gavage; type: organism-based; conditions: in vivo, 1000 mg/kg
[14] = Toxicity in female Beagle dog assessed as emesis at 1 to 3 mg/kg, po administered once via gavage and measured within 24 hrs; type: organism-based, Canis lupus familiaris; conditions: in vivo, dose 1-3 mg/kg
[15] = Toxicity in female Beagle dog assessed as side effects at 1 to 3 mg/kg, po administered once via gavage and measured within 24 hrs; type: organism-based, Canis lupus familiaris; conditions: in vivo, dose 1-3 mg/kg
Mus musculus [16] = experiment: Anti-inflammatory activity against LPS-induced acute lung injury male BALB/c mouse model assessed as reduction in IL-1beta level in BALF at 8 to 32 mg/kg administered once a day via gavage for 7 days followed by LPS stimulation and measured after 24 hrs; type: functional, organism-based; conditions: dose 8-32 mg/kg, time 192.0 hrs
Mus musculus [17] = experiment: Anti-inflammatory activity against LPS-induced acute lung injury male BALB/c mouse model assessed as reduction in TNF-alpha level in BALF at 8 to 32 mg/kg administered once a day via gavage for 7 days followed by LPS stimulation and measured after 24 hrs; type: functional, organism-based; conditions: dose 8-32 mg/kg, time 192.0 hrs
Mus musculus [18] = experiment: (§1) Anti-inflammatory activity against LPS-induced acute lung injury male BALB/c mouse model assessed as restoration of alveolar septa in lung at 8 to 32 mg/kg administered once a day via gavage for 7 days followed by LPS stimulation and measured after 24 hrs by H and E staining based analysis; type: functional, organism-based; conditions: dose 8-32 mg/kg, time 192.0 hrs
Mus musculus [19] = experiment: as §1, with “cavities” for “septa”, “based microscopic” for “based”; type: functional, organism-based; conditions: dose 8-32 mg/kg, time 192.0 hrs
Mus musculus [20] = experiment: Anti-inflammatory activity against LPS-induced acute lung injury male BALB/c mouse model assessed as relaxation of alveolar in lung at 8 to 32 mg/kg administered once a day via gavage for 7 days followed by LPS stimulation and measured after 24 hrs by H and E staining based microscopic analysis; type: functional, organism-based; conditions: dose 8-32 mg/kg, time 192.0 hrs
Mus musculus [21] = experiment: Anti-inflammatory activity against LPS-induced acute lung injury male BALB/c mouse model assessed as enlarged bronchiole tubes in lung at 8 to 32 mg/kg administered once a day via gavage for 7 days followed by LPS stimulation and measured after 24 hrs by H and E staining based microscopic analysis; type: functional, organism-based; conditions: dose 8-32 mg/kg, time 192.0 hrs
Mus musculus [22] = experiment: (§2) Anti-inflammatory activity against cigarette-smoke/LPS-induced COPD male C57BL/6 mouse model assessed as reduction in TNF-alpha level in BALF at 5 mg/kg pretreated with cigarette smoke exposure for 21 weeks with subsequent LPS induction twice on the first and 15th day followed by compound administration every day via gavage for 4 weeks; type: functional, organism-based
Mus musculus [23] = experiment: as §2, with “IL-6” for “TNF-alpha”; type: functional, organism-based
Mus musculus [24] = experiment: as §2, with “MMP9” for “TNF-alpha”; type: functional, organism-based
Mus musculus [25] = experiment: Enhancement of sputum secretion in male BALB/c mouse model assessed as increase in phenol red secretion in BALF at 4 to 32 mg/kg administered every day via gavage for 7 days followed by phenol red administration at 1 hrs post last dose and measured after 30 mins; type: functional, organism-based; conditions: dose 4-32 mg/kg, time 169.5 hrs
Mus musculus [26] = experiment: Antitussive activity in male BALB/c mouse model assessed as reduction in cough frequency at 32 mg/kg administered every day via gavage for 7 days at 1 hrs post last dose and measured within 3 min; type: functional, organism-based; conditions: time 169.05 hrs
RAW264.7 [27] = experiment: Anti-inflammatory activity in LPS-induced mouse RAW264.7 cells assessed as decrease in p38 MAPK protein level by Western blotting analysis; type: functional, cell-based
RAW264.7 [28] = experiment: cells; conditions: Mus musculus

O=C(Nc1nccs1)c1cccc2[nH]c(-c3ccc(OC(F)F)c(OCC4CC4)c3)nc12
inhibition [1]: 89.9%
Activity (HepG2): Non-toxic
half-life [2]: 0.737 h
half-life [3]: 1.03 h
AUC(0-inf) [4]: 2160 ng·h/mL
half-life [5]: 3.75 h
clearance [6]: 3.62 mL/min/kg
Activity [7]: Non-toxic
Activity [8]: Non-toxic
Activity [9]: Non-toxic
Activity [10]: Non-toxic
Activity [11]: Non-toxic
Activity [12]: Non-toxic
Activity [13]: Non-toxic
Activity [14]: Non-toxic
Activity [15]: Non-toxic
Activity (Mus musculus [16]): Active
Activity (Mus musculus [17]): Active
Activity (Mus musculus [18]): Active
Activity (Mus musculus [19]): Active
Activity (Mus musculus [20]): Active
Activity (Mus musculus [21]): Active
Activity (Mus musculus [22]): Active
Activity (Mus musculus [23]): Active
Activity (Mus musculus [24]): Active
Activity (Mus musculus [25]): Active
Activity (Mus musculus [26]): Active
Activity (RAW264.7 [27]): Active
IC50 (RAW264.7 [28]): 30.1 µM

Reference: ChEMBL document CHEMBL6121047, “Design, Synthesis, and Evaluation of Selective PDE4 Inhibitors for the Therapy of Pulmonary Injury” (J Med Chem, 2025)
